Results published in PubChem BioAssay (NCI).
Values joined by “and” are separate entries in the source; they are usually repeats but may differ in a detail not shown here. Equal entries are not always repeated.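 Interpolation was linear, between the two tested concentrations surrounding the appropriate level; five concentrations were tested over 48 hours in 96-well plates. GI50 marks 50% less growth. Definition used: TGI = concentration required for complete inhibition of growth.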

Key:
Experiment in all cases: inhibition of tumour cell growth, NCI panel, 48 h
HL-60(TB) leukemia = test system: HL-60(TB) leukemia
SNB-19 CNS = test system: SNB-19 CNS
KM12 colon = test system: KM12 colon
PC-3 prostate = test system: PC-3 prostate
HCC-2998 colon = test system: HCC-2998 colon
SW-620 colon = test system: SW-620 colon
SNB-75 CNS = test system: SNB-75 CNS
EKVX NSCLC = test system: EKVX NSCLC
ACHN renal = test system: ACHN renal
HOP-92 NSCLC = test system: HOP-92 NSCLC

Structure (SMILES) | GI50 (HL-60(TB) leukemia) [nM] | TGI (HL-60(TB) leukemia) [nM] | GI50 (SNB-19 CNS) [nM] | TGI (SNB-19 CNS) [nM] | GI50 (KM12 colon) | TGI (KM12 colon) [nM] | GI50 (PC-3 prostate) [nM] | TGI (PC-3 prostate) [nM] | GI50 (HCC-2998 colon) [nM] | TGI (HCC-2998 colon) [nM] | GI50 (SW-620 colon) [nM] | TGI (SW-620 colon) [nM] | GI50 (SNB-75 CNS) [nM] | TGI (SNB-75 CNS) [nM] | GI50 (EKVX NSCLC) [nM] | TGI (EKVX NSCLC) [nM] | GI50 (ACHN renal) [nM] | TGI (ACHN renal) [nM] | GI50 (HOP-92 NSCLC) [nM] | TGI (HOP-92 NSCLC)
O=C1OCC2=C1C(c1cccc(Cl)c1)c1cc3c(cc1N2CCO)OCCO3 (configuration not stated) | 47.2 | 346 | 74.7 | > 100000 | 43.1 nM | 1720 | 50.2 | 13100 | 157 | 2910 | 40 | > 100000 | 41.9 | 39300 | 1540 | > 89800 | 73.3 | > 100000 |  | 
COc1ccc2c(CN3CCCC[C@H]3C(=O)O)cc3cc4c(cc3c2c1)OCO4 |  |  | 1590 | 5740 | 3690 nM | 52500 | 2530 | 7140 | 3560 | > 100000 | 370 | 1790 | 397 | 2280 | 3000 | 6770 | 460 | 2430 | 1860 | 5190 nM
C[C@@H]1[C@H](C)N1CC(O)Cn1ccnc1[N+](=O)[O-] (some centres not stated) |  | > 100000 |  | > 100000 |  | > 100000 |  | > 100000 |  | > 100000 |  | > 100000 |  | > 100000 |  | > 100000 |  | > 100000 |  | 
COc1ccc(CCN2CC=Cn3c2nc2ccccc2c3=O)cc1 | < 11.6 | 64.8 | 61.4 | > 100000 | 16.7 nM | > 100000 | 30.8 | > 100000 | 33.2 | 35500 | 37 | > 100000 |  |  | 185 | > 100000 | 91.9 | > 49200 | 127 | 29500 nM
CC1=NN(C(=O)c2ccccc2O)C(=O)/C1=C/c1ccc(O)cc1 |  | > 41100 |  | > 100000 |  | > 100000 |  | > 100000 |  | > 100000 |  | > 100000 |  | > 100000 |  | > 100000 |  | > 100000 |  | 
CC[C@@]1(O)C(=O)OCc2c1cc1n(c2=O)Cc2cc3cc4c(cc3nc2-1)OCO4 |  |  |  |  | 35.3 nM and < 18.8 nM | 369 |  | > 100000 |  | 208 |  | 3180 |  |  | 415 |  |  |  |  | 166 nM and 51 nM
NC(=O)N/N=C1/CCC(O)CC1CC(=O)O (configuration not stated) |  | 31900 |  | > 100000 |  | > 100000 |  | > 100000 |  |  |  | > 100000 |  |  |  | > 100000 |  | > 100000 |  | > 100000 nM
